The values below come from patent US7691848B2, “Pyrrolobenzodiazepine arylcarboxamides and derivatives thereof as follicle-stimulating hormone receptor antagonists” (Wyeth, priority 2005, dated 2010).

The term melting point denotes the temperature of the solid-liquid transition. The IC50 is the point on the concentration scale where inhibition reaches its midpoint. By inhibition is commonly meant how much of the control response was suppressed.

For one series, the target named is T1, human FSH receptor (Homo sapiens, UniProt P23945).
T1 construct: host or cells: CHO-K1 (CHO FSH-R 6CRE-Luc, 1D7 cells)
T1 sequence (P23945 18-695): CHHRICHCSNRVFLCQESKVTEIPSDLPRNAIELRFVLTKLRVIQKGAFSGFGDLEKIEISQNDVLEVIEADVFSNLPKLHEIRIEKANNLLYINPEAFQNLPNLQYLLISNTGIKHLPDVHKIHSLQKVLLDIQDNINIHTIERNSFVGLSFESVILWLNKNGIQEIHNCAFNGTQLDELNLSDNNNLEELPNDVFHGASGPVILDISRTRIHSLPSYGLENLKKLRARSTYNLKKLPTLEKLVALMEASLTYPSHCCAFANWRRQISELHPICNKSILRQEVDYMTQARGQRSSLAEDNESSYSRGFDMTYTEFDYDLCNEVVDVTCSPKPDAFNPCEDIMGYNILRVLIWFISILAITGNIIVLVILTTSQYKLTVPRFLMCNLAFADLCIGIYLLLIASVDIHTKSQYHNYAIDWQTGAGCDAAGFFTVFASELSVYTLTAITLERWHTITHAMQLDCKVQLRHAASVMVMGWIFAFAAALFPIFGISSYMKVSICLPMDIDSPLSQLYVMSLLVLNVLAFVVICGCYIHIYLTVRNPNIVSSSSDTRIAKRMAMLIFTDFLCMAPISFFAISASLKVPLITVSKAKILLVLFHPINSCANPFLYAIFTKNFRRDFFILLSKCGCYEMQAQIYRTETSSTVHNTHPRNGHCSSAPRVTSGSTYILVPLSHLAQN
The experiment in a line: Follicle-Stimulating Hormone Receptor-Dependent Cre-Luciferase Reporter Gene Assay (CHO FSH-R 6CRE-Luc cells). The note with it: for IC50: dose-response format, in presence of EC50 of purified human FSH. In kind it is cell-based. The method, boiled down: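 CHO-K1 cells stably expressing human FSH receptor and a 6×CRE-driven luciferase reporter; compounds in growth medium with 0.2% DMSO, incubated 4 h at 37 °C. Luciferase measured by chemiluminescence (RLU/sec/well); 2-dose results given as percent inhibition of the response to an EC50 concentration of FSH.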
On the technique in general: A reporter such as luciferase makes a cellular process visible.

The next series deals with T2, hFSH-R (Homo sapiens, UniProt P23945).
T2 construct: expressed in transfected cells; host or cells: CHO-3D2 cells (CHO-K1 parental line)
T2 sequence (P23945 18-695): T1 sequence (P23945 18-695)
The series is described as follows: cAMP accumulation (RIA) in CHO-3D2 cells (hFSH-R), hFSH-induced. In kind it is cell-based. The note with it: for Emax: read-out: cAMP % efficacy. The method, then:
In Vitro Bio-Assay, Selectivity and Dependency of Agonists and Antagonists to the FSH Receptor
Compound Vehicle: Stock compounds were solubilized in 100% DMSO (Sigma-Aldrich Chemical Co., St. Louis, Mo.) at a concentration of 30 mM. The compounds subsequently were diluted in sterile assay medium consisting of Opti-MEM® I (Invitrogen/Life Technologies, Carlsbad, Calif.) with 0.1% (w/v) BSA (Sigma-Aldrich) prior to use in the bio-assay. The final concentration of DMSO in the assay was 0.1%.
Plated cells are then incubated at 37° C. in a humidified 5% CO2/95% air atmosphere.
Assay: On the day of the assay, cells were washed three times with 100 μl/well of assay medium consisting of Opti-MEM® I (Invitrogen/Life Technologies) with 0.1% (w/v) BSA (Sigma-Aldrich). Medium was removed and 100 μl of assay medium was added to each well. Plates were incubated for an additional 30 minutes at 37° C. […] Reactions were terminated by the addition of 50 μl of 0.2N hydrochloric acid to each well and cAMP-accumulation was measured by radioimmunoassay (RIA) using a commercially available kit (Amersham Biosciences, Piscataway, N.J.).
All test compounds were evaluated in a dose-response paradigm ranging from 0.01 to 30 μM. Controls and test compounds were evaluated in quadruplicate in a 96-well format.
Along with the test compounds, FSH also was run as a positive control in the agonist mode using concentrations ranging from 0.1-1000 ng/ml.
Data were analyzed by one-way analysis of variance and significant differences between treatments and control determined by Least Significant Difference test.
Test compounds were compared to the effect of purified human FSH.
A general note: cAMP levels reflect the balance of adenylyl cyclase and phosphodiesterase activity.

Where only a bound is given, the exact number is not on record here.

Take `Cc1ccc(CNC(=O)c2ccc3n2Cc2ccccc2N(C(=O)c2ccc(-c4ccccc4C)c(C)c2)C3)cc1` [Example 14]: the melting point was in the range of 179 to 181 °C. In addition, at human FSH receptor, the IC50 is 1710 nM. For the same compound, on hFSH-R, half-maximal inhibition (IC50) was put at 2600 nM and the Emax was 86%.
For `Cc1ccccc1-c1ccc(C(=O)N2Cc3ccc(C(=O)NCc4ccccc4)n3Cc3ccccc32)cc1C` [Example 15], the melting point was 138 to 141 °C. Moreover, the IC50 on human FSH receptor was 2600 nM. In addition, on hFSH-R, the midpoint of inhibition, the IC50, lay at 400 nM and the Emax is 90%.
The corresponding values for `Cc1ccccc1-c1ccc(C(=O)N2Cc3ccc(C(=O)NCc4cccc(C(F)(F)F)c4)n3Cc3ccccc32)cc1C` [Example 16] are 171 to 173 °C, 8500 nM, 14000 nM and 65%.
As to `Cc1ccccc1CNC(=O)c1ccc2n1Cc1ccccc1N(C(=O)c1ccc(-c3ccccc3C)c(C)c1)C2` [Example 17], the melting point lay within 128 to 130 °C. Further, at human FSH receptor, the 50% inhibitory concentration (IC50) was found to be 6390 nM. In addition, at hFSH-R, the half-inhibitory concentration (IC50) stood at 2600 nM and the Emax worked out at 88%.
`Cc1ccccc1-c1ccc(C(=O)N2Cc3ccc(C(=O)NCc4ccc(Cl)cc4)n3Cc3ccccc32)cc1C` [Example 18] gave a melting point of 196 to 197 °C. Moreover, the inhibition at 30 µM on human FSH receptor (2-dose format, concentration in parentheses 30 μM, inhibition of the response to EC50 of FSH) was determined as 58%. Further, the concentration for half-maximal inhibition (IC50) on hFSH-R is above 30000 nM.
The compound `COc1cc(CNC(=O)c2ccc3n2Cc2ccccc2N(C(=O)c2ccc(-c4ccccc4C)c(C)c2)C3)cc(OC)c1` [Example 20] came in with a melting point of 183 to 184 °C. In addition, the 50% inhibitory concentration (IC50) on human FSH receptor came to 12000 nM. This compound had an IC50 on hFSH-R above 30000 nM.
Taken in the same sequence, the figures for `Cc1ccc(CNC(=O)c2ccc3n2Cc2ccccc2N(C(=O)c2ccc(-c4ccccc4C)c(C)c2)C3)c(C)c1` [Example 21] were 159 to 161 °C, 6200 nM and above 30000 nM.
As for `Cc1cccc(CNC(=O)c2ccc3n2Cc2ccccc2N(C(=O)c2ccc(-c4ccccc4C)c(C)c2)C3)c1` [Example 22], the melting point lay in the range of 130 to 132 °C. Also, on human FSH receptor, the half-maximal inhibitory concentration (IC50) is 2880 nM. Besides, on hFSH-R, the IC50 is 3000 nM and the Emax amounted to 62%.
As for `Cc1ccccc1-c1ccc(C(=O)N2Cc3ccc(C(=O)NCc4ccc5c(c4)OCO5)n3Cc3ccccc32)cc1C` [Example 23], the melting point fell in the range of 149 to 151 °C. The IC50 on human FSH receptor was 1410 nM. Besides, at hFSH-R, the IC50 was 7700 nM and the Emax is 77%.
Taken in the same sequence, the figures for `Cc1ccccc1-c1ccc(C(=O)N2Cc3ccc(C(=O)NCCc4ccc(O)cc4)n3Cc3ccccc32)cc1C` [Example 31] were 129 to 131 °C, 800 nM, 200 nM and 100%.
`Cc1ccccc1-c1ccc(C(=O)N2Cc3ccc(C(=O)NCc4cccc(N)c4)n3Cc3ccccc32)cc1C` [Example 34]: the melting point was in the range of 105 to 115 °C. Also, the half-inhibitory concentration (IC50) at human FSH receptor was determined as 5370 nM. The compound further showed a half-maximal inhibitory concentration (IC50) against hFSH-R of 2600 nM.
As for `COc1cc(C(=O)N2Cc3ccc(C(=O)NCc4cccc(C)c4)n3Cc3ccccc32)ccc1-c1ccccc1C` [Example 37, 10-[(2-METHOXY-2′-METHYL-1,1′-BIPHENYL-4-YL)CARBONYL]-N-(3-METHYLBENZYL)-10,11-DIHYDRO-5H-PYRROLO[2,1-C][1,4]BENZODIAZEPINE-3-CARBOXAMIDE], the melting point lay in the range of 165 to 166 °C. The IC50 on human FSH receptor was 4030 nM. Moreover, at hFSH-R, the IC50 was found to be 700 nM and the Emax is 80%.
The compound `COc1cc(C(=O)N2Cc3ccc(C(=O)NCc4ccc(C)cc4)n3Cc3ccccc32)ccc1-c1ccccc1C` [Example 38, 10-[(2-METHOXY-2′-METHYL-1,1′-BIPHENYL-4-YL)CARBONYL]-N-(4-METHYLBENZYL)-10,11-DIHYDRO-5H-PYRROLO[2,1-C][1,4]BENZODIAZEPINE-3-CARBOXAMIDE] came in with a melting point of 179 to 180 °C. The concentration for half-maximal inhibition (IC50) at human FSH receptor was found to be 1690 nM. Also, at hFSH-R, the 50% inhibitory concentration (IC50) was 500 nM and the Emax amounted to 83%.
